These results are taken from US11731964B2, “Benzamide antibacterial agents” (Purdue Research Foundation, priority 2018, dated 2023).

Format in all cases: cell-based
The subject of assay [1] is S. aureus. As to the kind of experiment: Screening of compounds for growth inhibition of S. aureus at 16 μg/mL (OD600). To be noted: compound at 16 μg/mL, 24 hours, compared to DMSO control. The method, then:
Library compounds and analogs of F6 were dissolved in DMSO at 10 mg/mL. S. aureus was cultured in Mueller Hinton Broth to early exponential phase at which point culture aliquots were incubated with compounds at 16 μg/mL or DMSO in duplicates. The culture was continued at 37° C. for 24 hours. Aliquots (100 μL) of the cultures were dispensed into clear 96 well microtiter plates and OD600 was recorded. Percent normalized OD600 was obtained by using the equation [formula] wherein for a given compound, X is the OD600 of culture with the compound, Xo is that of media only and XT is the OD600 of the DMSO control.

For assay [2], the system named is S. aureus ATCC 25923. As to the kind of experiment: MIC, broth microdilution. To be noted: Staphylococcus aureus, ATCC25923; S. aureus ATCC 25923; read-out: MIC. The method, then: (§1) Bacteria were cultured in cation-adjusted Mueller Hinton Broth (for strains in Tables 1 and 4) or Brain Heart Infusion broth (for Enterococcus faecium) or Tryptic Soy Broth (all other bacteria) in a 96-well plate at 37° C. for at least 20 hours. The MIC was classified as the lowest concentration where no visual growth of bacteria was observed. The minimum bactericidal concentration (MBC) was tested by spotting 4 μL from wells with no growth onto Tryptic Soy Agar (TSA) plates. Plates were incubated at 37° C. for at least 18 hours before recording the MBC.
Background: Broth dilution looks for growth in wells or tubes with falling amounts of substance.

Assay [3] has as its system VRE (E. faecalis) ATCC 51575. As to the kind of experiment: MIC, broth microdilution. To be noted: VRE (E. faecalis) ATCC 51575; read-out: MIC. On the procedure: as §1
Assay [4] deals with L. monocytogenes ATCC 19115. The assay can be described thus: MIC, broth microdilution. To be noted: Listeria monocytogenes, ATCC19115; L. monocytogenes ATCC 19115; read-out: MIC. On the procedure:
as §1

The test system of assay [5] is E. faecalis ATCC 29212. The assay can be described thus: MIC, broth microdilution. To be noted: Enterococcus faecalis, ATCC29212; E. faecalis ATCC 29212; read-out: MIC. On the procedure: as §1
Assay [6] has as its system MRSA ATCC 33592. The assay can be described thus: MIC, broth microdilution. To be noted: Staphylococcus aureus; MRSA ATCC 33592; read-out: MIC. The method, then: as §1
Assay [7] deals with C. difficile NR-32895 (P19). As to the kind of experiment: Clostridium difficile inhibition analysis. To be noted: for Antibacterial activity: Table 7, C. difficile NR-32895 (P19); for Clostridium difficile inhibition: Table 6, P19.
The subject of assay [8] is C. difficile NR-13435 (isolate 9). The assay can be described thus: Clostridium difficile inhibition analysis. To be noted: for Antibacterial activity: Table 7, C. difficile NR-13435 (isolate 9); for Clostridium difficile inhibition: Table 6, I9.
Assay [9] has as its system C. difficile NR-32883 (P2). As to the kind of experiment: Clostridium difficile inhibition analysis. To be noted: for Antibacterial activity: Table 7, C. difficile NR-32883 (P2); for Clostridium difficile inhibition: Table 6, P2.
The test system of assay [10] is Clostridium difficile ATCC BAA 1801. As to the kind of experiment: Clostridium difficile inhibition analysis. To be noted: for Antibacterial activity: Table 7, C. difficile ATCC BAA 1801; for Clostridium difficile inhibition: Table 6, ATCC BAA 1801.
The test system of assay [11] is C. difficile NR-32904 (P30). As to the kind of experiment: Clostridium difficile inhibition analysis. To be noted: for Antibacterial activity: Table 7, C. difficile NR-32904 (P30); for Clostridium difficile inhibition: Table 6, P30.
The subject of assay [12] is C. difficile NR-13432 (isolate 6). The assay can be described thus: Clostridium difficile inhibition analysis. To be noted: for Antibacterial activity: Table 7, C. difficile NR-13432 (isolate 6); for Clostridium difficile inhibition: Table 6, I6.
Assay [13] concerns C. difficile NR-32891 (P13). The assay can be described thus: Clostridium difficile inhibition analysis. To be noted: for Antibacterial activity: Table 7, C. difficile NR-32891 (P13); for Clostridium difficile inhibition: Table 6, P13.
Assay [14] concerns VRE. As to the kind of experiment: MIC (Table 5, strain not given). To be noted: Enterococcus; VRE (Table 5). On the procedure:
as §1

Assay [15] deals with S. aureus. The assay can be described thus: MIC (Table 5, strain not given). To be noted: Staphylococcus aureus; S. aureus (Table 5). On the procedure:
as §1

Assay [16] has as its system E. faecalis. As to the kind of experiment: MIC (Table 5, strain not given). To be noted: Enterococcus faecalis; E. faecalis (Table 5). On the procedure:
as §1

Assay [17] has as its system Clostridium difficile ATCC 43255. The assay can be described thus: Clostridium difficile inhibition analysis. To be noted: for Clostridium difficile inhibition: Table 6, ATCC 43255.
Assay [18] relates to Clostridium difficile ATCC 9689. As to the kind of experiment: Clostridium difficile inhibition analysis. To be noted: Table 6, ATCC 9689.

Values after ≈ are worked out from the molar mass of the structure shown.

The MIC is the least concentration at which growth counts as inhibited.

Turning to `CN(C)S(=O)(=O)c1ccc(C(=O)Nc2nnc(-c3ccc(F)cc3)o2)cc1` [Compound F3], the “inhibition of growth of S. aureus” value in assay [1] is reported as “significantly inhibited the growth”. For the same compound, the minimum inhibitory concentration (MIC) was determined as 16 µg/mL (≈ 41 µM) in assay [2]; 32 µg/mL (≈ 82 µM) in [3]; 32 µg/mL (≈ 82 µM) in assay [4]; 32 µg/mL (≈ 82 µM) in assay [5]; 16 µg/mL (≈ 41 µM) in [6].

Turning to `O=C(Nc1nnc(-c2cccs2)s1)c1ccc(S(=O)(=O)N2CCCCC2)cc1` [Compound F4], the “inhibition of growth of S. aureus” value in assay [1] is recorded as “significantly inhibited the growth”. Moreover, the minimal inhibitory concentration (MIC) in assay [2] was 16 µg/mL (≈ 36.8 µM); in [3] it was 32 µg/mL (≈ 73.6 µM); in [4] it was 16 µg/mL (≈ 36.8 µM); in [5], 32 µg/mL (≈ 73.6 µM); in assay [6], 16 µg/mL (≈ 36.8 µM).

As to `CC1CCCCN1S(=O)(=O)c1ccc(C(=O)Nc2nnc(-c3cccs3)o2)cc1` (stereo not shown) [Compound F5], in [1], the “inhibition of growth of S. aureus” value was “significantly inhibited the growth”. The minimum inhibitory concentration (MIC) was 8 µg/mL (≈ 18.5 µM) in assay [2]; 16 µg/mL (≈ 37 µM) in assay [3]; 16 µg/mL (≈ 37 µM) in [4]; 16 µg/mL (≈ 37 µM) in assay [5]; 8 µg/mL (≈ 18.5 µM) in assay [6].

Regarding `CC1CC(C)CN(S(=O)(=O)c2ccc(C(=O)Nc3nnc(-c4ccc(Cl)cc4)o3)cc2)C1` (stereo not shown) [Compound F6-5, N-(5-(4-Chlorophenyl)-1,3,4-oxadiazol-2-yl)-4-((3,5-dimethylpiperidin-1-yl)sulfonyl)benzamide], in assay [1], the “inhibition of growth of S. aureus” value is listed as “active”. For the same compound, the minimum inhibitory concentration (MIC) in assay [2] turned out to be 2 µg/mL (≈ 4.21 µM); in assay [3], 2 µg/mL (≈ 4.21 µM); in [4], 2 µg/mL (≈ 4.21 µM); in assay [5], 4 µg/mL (≈ 8.42 µM); in assay [6], 1 µg/mL (≈ 2.11 µM).

For `COc1cccc(-c2nnc(NC(=O)c3ccc(S(=O)(=O)N(C)CC4CCCO4)cc3)o2)c1` (stereo not shown) [Compound G8], the “inhibition of growth of S. aureus” value in [1] is reported as “significantly inhibited the growth”. Besides, the minimum inhibitory concentration (MIC) in assay [2], in assay [3], in [4], in assay [5] and in [6] was 32 µg/mL (≈ 67.7 µM) throughout.

For `CC1CC(C)CN(S(=O)(=O)c2cncc(C(=O)Nc3nnc(-c4ccc(C(F)(F)F)cc4)o3)c2)C1` (stereo not shown) [HSGN 216, 5-((3,5-dimethylpiperidin-1-yl)sulfonyl)-N-(5-(4-(trifluoromethyl)phenyl)-1,3,4-oxadiazol-2-yl)nicotinamide], the Antibacterial activity is listed as 0.125 in assay [7]; 0.125 in assay [8]; 0.06 in assay [9]; 0.25 in [10]; 0.5 in assay [11]; 0.125 in [12]. Moreover, the Antibacterial activity in assay [13] came to 0.5.

`COc1cccc(-c2nnc(NC(=O)c3ccc(S(=O)(=O)N4C[C@H](C)C[C@H](C)C4)cc3)o2)c1` [HSGN-112, 4-(((3S,5R)-3,5-dimethylpiperidin-1-yl)sulfonyl)-N-(5-(3-methoxyphenyl)-1,3,4-oxadiazol-2-yl)benzamide]: the minimal inhibitory concentration (MIC) in assay [14] amounted to 4 µg/mL (≈ 8.5 µM); in assay [15], 4 µg/mL (≈ 8.5 µM); in [16], 8 µg/mL (≈ 17 µM); in assay [6], 2 µg/mL (≈ 4.25 µM).

As to `O=C(Nc1nnc(-c2ccc(C(F)(F)F)cc2)o1)c1ccc(S(=O)(=O)Nc2ccccc2)cc1` [HSGN-118, 4-(N-phenylsulfamoyl)-N-(5-(4-(trifluoromethyl)phenyl)-1,3,4-oxadiazol-2-yl)benzamide], the Clostridium difficile inhibition in assay [17], in [7], in [18], in assay [8], in assay [9] and in [10] was 0.5 throughout. The Clostridium difficile inhibition in assay [11] amounted to 0.5; in assay [12], 0.5; in assay [13], 1. Further, the minimal inhibitory concentration (MIC) in [15] and in assay [6] was 4 µg/mL (≈ 8.19 µM) throughout.

In the case of `C[C@@H]1C[C@H](C)CN(S(=O)(=O)c2ccc(C(=O)Nc3nnc(-c4cccc(C(F)(F)F)c4)o3)cc2)C1` [HSGN-122, 4-(((3S,5R)-3,5-dimethylpiperidin-1-yl)sulfonyl)-N-(5-(3-(trifluoromethyl)phenyl)-1,3,4-oxadiazol-2-yl)benzamide], the MIC stood at 8 µg/mL (≈ 15.7 µM) in assay [14], 2 µg/mL (≈ 3.93 µM) in [15], 4 µg/mL (≈ 7.87 µM) in assay [16] and 1 µg/mL (≈ 1.97 µM) in [6].

As for `Cc1nc(C)c(-c2nnc(NC(=O)c3ccc(S(=O)(=O)N4C[C@H](C)C[C@H](C)C4)cc3)o2)s1` [HSGN-123, 4-(((3S,5R)-3,5-dimethylpiperidin-1-yl)sulfonyl)-N-(5-(2,4-dimethylthiazol-5-yl)-1,3,4-oxadiazol-2-yl)benzamide], the MIC in [14] came to 64 µg/mL (≈ 135 µM); in [15], 16 µg/mL (≈ 33.6 µM); in [16], 32 µg/mL (≈ 67.3 µM); in assay [6], 8 µg/mL (≈ 16.8 µM).

As to `C[C@@H]1C[C@H](C)CN(S(=O)(=O)c2ccc(C(=O)Nc3nnc(-c4ccnn4C)o3)cc2)C1` [HSGN-124, 4-(((3S,5R)-3,5-dimethylpiperidin-1-yl)sulfonyl)-N-(5-(1-methyl-1H-pyrazol-5-yl)-1,3,4-oxadiazol-2-yl)benzamide], the Clostridium difficile inhibition in assay [17] came out at 1; in assay [7], 1; in assay [18], 1; in assay [8], 0.5; in assay [9], 0.5; in assay [10], 2. The Clostridium difficile inhibition in assay [11] is 2; in assay [12], 0.5; in [13], 2. In addition, the MIC stood at 128 µg/mL (≈ 288 µM) in assay [14], 8 µg/mL (≈ 18 µM) in [15], 16 µg/mL (≈ 36 µM) in assay [16] and 4 µg/mL (≈ 9 µM) in assay [6].

As to `CN(c1ccccc1)S(=O)(=O)c1ccc(C(=O)Nc2nnc(-c3ccc(C(F)(F)F)cc3)o2)cc1` [HSGN-161, 4-(N-methyl-N-phenylsulfamoyl)-N-(5-(4-(trifluoromethyl)phenyl)-1,3,4-oxadiazol-2-yl)benzamide], the Clostridium difficile inhibition in assay [17] was found to be 0.5; in assay [7] it was 0.5; in [18] it was 0.5; in assay [8] it was 0.5; in assay [9], 0.5; in assay [10], 1. In addition, the Clostridium difficile inhibition in assay [11], in assay [12] and in [13] was 0.5 each time. For the same compound, the minimum inhibitory concentration (MIC) in assay [15] and in assay [6] was 0.25 µg/mL (≈ 0.498 µM) throughout.

As for `C[C@@H]1C[C@H](C)CN(S(=O)(=O)c2csc(C(=O)Nc3nnc(-c4ccc(C(F)(F)F)cc4)o3)c2)C1` [HSGN-193, 4-(((3S,5R)-3,5-dimethylpiperidin-1-yl)sulfonyl)-N-(5-(4-(trifluoromethyl)phenyl)-1,3,4-oxadiazol-2-yl)thiophene-2-carboxamide], the Antibacterial activity in [17] (Table 7, C. difficile ATCC 43255) was 0.25; in assay [7], 0.25; in assay [8], 0.125; in [9], 0.125; in assay [10], 0.25; in assay [11], 0.5. Further, the Antibacterial activity in [12] came out at 0.125; in assay [13] it was 0.5. Moreover, the MIC was determined as 0.5 µg/mL (≈ 0.972 µM) in assay [15] and 1 µg/mL (≈ 1.94 µM) in assay [6].
